Assay [1] has as its target T1, Caspase-1 (Homo sapiens, UniProt P29466).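 Note: Caspase-1 enzyme inhibition assay with a peptide substrate; in other assays of this panel Not Active means under 50% inhibition at 10 µM.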
T1 sequence (P29466 whole entry): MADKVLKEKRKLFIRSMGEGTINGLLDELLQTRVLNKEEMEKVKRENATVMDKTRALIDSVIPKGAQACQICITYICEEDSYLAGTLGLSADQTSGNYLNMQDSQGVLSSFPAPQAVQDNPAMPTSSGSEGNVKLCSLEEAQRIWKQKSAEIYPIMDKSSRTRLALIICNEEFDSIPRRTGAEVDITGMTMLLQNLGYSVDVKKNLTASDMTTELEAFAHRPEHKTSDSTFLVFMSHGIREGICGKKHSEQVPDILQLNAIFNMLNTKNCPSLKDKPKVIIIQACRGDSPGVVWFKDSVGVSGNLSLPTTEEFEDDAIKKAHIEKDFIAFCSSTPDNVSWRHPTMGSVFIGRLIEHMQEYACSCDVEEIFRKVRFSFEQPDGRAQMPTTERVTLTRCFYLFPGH
Also on record: species or system Escherichia coli.

Assay [2] has as its target C-C chemokine receptor type 5 (Homo sapiens, UniProt P51681). Type of assay: cell membranes, Membrane. As to conditions: hek293. Note: in other assays of this panel Not Active means under 50% inhibition at 10 µM.
The nature of assay [3]: DRUGMATRIX: Calcium Channel Type L, Benzothiazepine radioligand binding (ligand: [3H] Diltiazem). As to conditions: Not Active = under 50% inhibition at 10 µM. In kind it is cell membranes, Rattus norvegicus, Wistar, Brain, Membrane.
A short description of assay [4]: DRUGMATRIX: Tumor Necrosis Factor (TNF), Non-Selective radioligand binding (ligand: [125I] TNF-alpha). In kind it is cell membranes, Membrane. As to conditions: u-937; Not Active = under 50% inhibition at 10 µM.
The target of assay [5] is C-C chemokine receptor type 2 (Homo sapiens, UniProt P41597). In kind it is cell membranes, CHO-K1, Membrane. As to conditions: cho-k1. Note: in other assays of this panel Not Active means under 50% inhibition at 10 µM.
Assay [6] is described as follows: DRUGMATRIX: Serotonin (5-Hydroxytryptamine) 5-HT3 radioligand binding (ligand: [3H] GR-65630). Type of assay: cell membranes, Membrane. As to conditions: hek293; Not Active = under 50% inhibition at 10 µM.

C-C chemokine receptor type 2, sequence (P41597 whole entry): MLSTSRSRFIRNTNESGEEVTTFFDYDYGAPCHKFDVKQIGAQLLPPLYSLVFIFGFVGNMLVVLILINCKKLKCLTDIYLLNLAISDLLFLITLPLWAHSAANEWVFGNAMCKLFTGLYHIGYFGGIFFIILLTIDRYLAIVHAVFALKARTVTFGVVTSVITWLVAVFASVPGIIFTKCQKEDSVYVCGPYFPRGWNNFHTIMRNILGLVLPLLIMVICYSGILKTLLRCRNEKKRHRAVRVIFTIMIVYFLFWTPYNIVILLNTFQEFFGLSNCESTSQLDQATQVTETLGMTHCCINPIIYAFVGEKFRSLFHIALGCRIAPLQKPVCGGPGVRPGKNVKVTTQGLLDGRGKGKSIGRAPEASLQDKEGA
C-C chemokine receptor type 5, sequence (P51681 whole entry): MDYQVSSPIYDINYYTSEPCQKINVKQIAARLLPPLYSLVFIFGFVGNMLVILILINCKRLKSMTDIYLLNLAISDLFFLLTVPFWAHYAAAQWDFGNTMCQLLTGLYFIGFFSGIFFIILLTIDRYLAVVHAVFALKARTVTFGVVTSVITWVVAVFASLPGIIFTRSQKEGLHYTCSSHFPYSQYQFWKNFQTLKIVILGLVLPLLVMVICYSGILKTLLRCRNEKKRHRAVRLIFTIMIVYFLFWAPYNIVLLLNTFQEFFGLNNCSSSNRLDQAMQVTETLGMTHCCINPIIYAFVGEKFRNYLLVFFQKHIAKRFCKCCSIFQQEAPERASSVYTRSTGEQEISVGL

Take `CO[C@H]1/C=C/O[C@@]2(C)Oc3c(C)c(O)c4c(O)c(c(/C=N/N5CCN(C)CC5)c(O)c4c3C2=O)NC(=O)/C(C)=C\C=C\[C@H](C)[C@H](O)[C@@H](C)[C@@H](O)[C@@H](C)[C@H](OC(C)=O)[C@@H]1C` [RIFAMPIN]: the IC50 in assay [1] (read-out: IC50) was 8.32 µM; in assay [2], “Not Active”; in assay [3], “Not Active”; in assay [4], “Not Active”; in assay [5], “Not Active”; in assay [6] it was “Not Active”. In addition, the Ki entry in assay [3], in assay [4] and in assay [6] was “Not Active” each time.

Regarding `Nc1nc2ccc(OC(F)(F)F)cc2s1` [RILUZOLE], the IC50 result in assay [1], in assay [2], in assay [3], in assay [4], in assay [5] and in assay [6] was “Not Active” throughout. Moreover, the Ki entry in assay [3], in assay [4] and in assay [6] was “Not Active” throughout.

In the case of `C=CCC1(C(C)CCC)C(=O)NC(=O)NC1=O` (centres undefined) [SECOBARBITAL], the IC50 result in assay [1], in assay [2], in assay [3], in assay [4], in assay [5] and in assay [6] was “Not Active” throughout. Also, the Ki entry in assay [3], in assay [4] and in assay [6] was “Not Active” throughout.

In the case of `C[C@@H]1CN(c2c(F)c(N)c3c(=O)c(C(=O)O)cn(C4CC4)c3c2F)C[C@H](C)N1` [SPARFLOXACIN], the IC50 entry in assay [1], in assay [2], in assay [3], in assay [4], in assay [5] and in assay [6] was “Not Active” throughout. Moreover, the Ki entry in assay [3], in assay [4] and in assay [6] was “Not Active” in each case.

In the case of `Cc1noc(NS(=O)(=O)c2ccc(N)cc2)c1C` [SULFISOXAZOLE], the IC50 entry in assay [1], in assay [2], in assay [3], in assay [4], in assay [5] and in assay [6] was “Not Active” each time. For the same molecule, the Ki result in assay [3], in assay [4] and in assay [6] was “Not Active” in each case.

Regarding `CSc1ccc(/C=C2/C(C)=C(CC(=O)O)c3cc(F)ccc32)cc1` [SULINDAC SULFIDE], the concentration for half-maximal inhibition (IC50) result in assay [1], in assay [2], in assay [3], in assay [4], in assay [5] and in assay [6] was “Not Active” in each case. The Ki result in assay [3], in assay [4] and in assay [6] was “Not Active” throughout.

In the case of `Nc1c2c(nc3ccccc13)CCCC2` [TACRINE], the half-maximal inhibitory concentration (IC50) entry in assay [1], in assay [2], in assay [3], in assay [4], in assay [5] and in assay [6] was “Not Active” each time. The Ki result in assay [3], in assay [4] and in assay [6] was “Not Active” each time.

As to `Nc1nc2nc[nH]c2c(=S)[nH]1` [THIOGUANINE], the IC50 entry in assay [1], in assay [2], in assay [3], in assay [4], in assay [5] and in assay [6] was “Not Active” in each case. Also, the Ki result in assay [3], in assay [4] and in assay [6] was “Not Active” in each case.

In the case of `Cc1cccc(N(C)C(=S)Oc2ccc3ccccc3c2)c1` [TOLNAFTATE], the half-maximal inhibitory concentration (IC50) result in assay [1], in assay [2], in assay [3], in assay [4], in assay [5] and in assay [6] was “Not Active” throughout. In addition, the Ki result in assay [3], in assay [4] and in assay [6] was “Not Active” in each case.

On to `NC[C@H]1CC[C@H](C(=O)O)CC1` [TRANEXAMIC ACID], for which the IC50 result in assay [1], in assay [2], in assay [3], in assay [4], in assay [5] and in assay [6] was “Not Active” throughout. The Ki entry in assay [3], in assay [4] and in assay [6] was “Not Active” each time.

`CC1(C)O[C@@H]2C[C@H]3[C@@H]4CCC5=CC(=O)C=C[C@]5(C)[C@@]4(F)[C@@H](O)C[C@]3(C)[C@]2(C(=O)CO)O1` [TRIAMCINOLONE ACETONIDE]: the IC50 entry in assay [1], in assay [2], in assay [3], in assay [4], in assay [5] and in assay [6] was “Not Active” each time. Further, the Ki result in assay [3], in assay [4] and in assay [6] was “Not Active” each time.

As to `NS(=O)(=O)c1cc2c(cc1Cl)NC(C(Cl)Cl)NS2(=O)=O` (centres undefined) [TRICHLORMETHIAZIDE], the IC50 entry in assay [1], in assay [2], in assay [3], in assay [4], in assay [5] and in assay [6] was “Not Active” each time. Besides, the Ki entry in assay [3], in assay [4] and in assay [6] was “Not Active” each time.

On to `Cc1c(C)c2c(c(C)c1O)CCC(C)(COc1ccc(CC3SC(=O)NC3=O)cc1)O2` (centres undefined) [TROGLITAZONE], for which the IC50 entry in assay [1], in assay [2], in assay [3], in assay [4], in assay [5] and in assay [6] was “Not Active” each time. For the same molecule, the Ki result in assay [3], in assay [4] and in assay [6] was “Not Active” in each case.

For `N[C@@H]1[C@H]2CN(c3nc4c(cc3F)c(=O)c(C(=O)O)cn4-c3ccc(F)cc3F)C[C@@H]12` [TROVAFLOXACIN], the IC50 entry in assay [1], in assay [2], in assay [3], in assay [4], in assay [5] and in assay [6] was “Not Active” in each case. Also, the Ki result in assay [3], in assay [4] and in assay [6] was “Not Active” throughout.

Consider `N#CC(C#N)=Cc1ccc(O)c(O)c1` [TYRPHOSTIN 23], for which the IC50 entry in assay [1], in assay [2], in assay [3], in assay [4], in assay [5] and in assay [6] was “Not Active” each time. Also, the Ki result in assay [3], in assay [4] and in assay [6] was “Not Active” each time.

For the molecule `CC[C@]1(O)C[C@H]2CN(CCc3c([nH]c4ccccc34)[C@@](C(=O)OC)(c3cc4c(cc3OC)N(C=O)[C@H]3[C@@](O)(C(=O)OC)[C@H](OC(C)=O)[C@]5(CC)C=CCN6CC[C@]43[C@@H]65)C2)C1` [VINCRISTINE], the IC50 result in assay [1], in assay [2], in assay [3], in assay [4], in assay [5] and in assay [6] was “Not Active” in each case. Also, the Ki result in assay [3], in assay [4] and in assay [6] was “Not Active” throughout.

Broadly, the IC50 is the concentration needed to halve the response being measured.

(Values after ChEMBL document CHEMBL1909046, “DrugMatrix in vitro pharmacology data”.)
